Data: US20230065740A1, “CYCLIN-DEPENDENT KINASE INHIBITORS” (SPV THERAPEUTICS INC., priority 2018, published 2023)

Columns and labels:
[1] = target: CDK1/B (Homo sapiens, UniProt P06493); assay: Additional inhibition assay, CDK1/B; assay type: biochemical
[2] = target: T1, CDK9-CYCLINT1 (Homo sapiens, UniProt P50750); assay: Microfluidic LabChip kinase inhibition assay, CDK9-CyclinT1; assay type: biochemical; conditions: Table 3a; 10 μM ATP; read-out: CDK9 CyclinT1 IC50
T1 construct: purchased Carna
T1 sequence (P50750 whole entry): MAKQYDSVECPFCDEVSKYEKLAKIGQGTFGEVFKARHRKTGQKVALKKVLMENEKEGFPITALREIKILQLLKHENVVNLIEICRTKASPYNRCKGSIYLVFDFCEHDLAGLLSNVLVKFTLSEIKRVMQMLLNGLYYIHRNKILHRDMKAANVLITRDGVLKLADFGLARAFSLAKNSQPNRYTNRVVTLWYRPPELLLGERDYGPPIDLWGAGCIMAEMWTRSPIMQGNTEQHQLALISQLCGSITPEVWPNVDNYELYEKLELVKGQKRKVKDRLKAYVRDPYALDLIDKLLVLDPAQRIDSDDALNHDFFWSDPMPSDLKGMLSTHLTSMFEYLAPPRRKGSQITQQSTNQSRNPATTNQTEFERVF
T1 sequence (O60563 whole entry partner): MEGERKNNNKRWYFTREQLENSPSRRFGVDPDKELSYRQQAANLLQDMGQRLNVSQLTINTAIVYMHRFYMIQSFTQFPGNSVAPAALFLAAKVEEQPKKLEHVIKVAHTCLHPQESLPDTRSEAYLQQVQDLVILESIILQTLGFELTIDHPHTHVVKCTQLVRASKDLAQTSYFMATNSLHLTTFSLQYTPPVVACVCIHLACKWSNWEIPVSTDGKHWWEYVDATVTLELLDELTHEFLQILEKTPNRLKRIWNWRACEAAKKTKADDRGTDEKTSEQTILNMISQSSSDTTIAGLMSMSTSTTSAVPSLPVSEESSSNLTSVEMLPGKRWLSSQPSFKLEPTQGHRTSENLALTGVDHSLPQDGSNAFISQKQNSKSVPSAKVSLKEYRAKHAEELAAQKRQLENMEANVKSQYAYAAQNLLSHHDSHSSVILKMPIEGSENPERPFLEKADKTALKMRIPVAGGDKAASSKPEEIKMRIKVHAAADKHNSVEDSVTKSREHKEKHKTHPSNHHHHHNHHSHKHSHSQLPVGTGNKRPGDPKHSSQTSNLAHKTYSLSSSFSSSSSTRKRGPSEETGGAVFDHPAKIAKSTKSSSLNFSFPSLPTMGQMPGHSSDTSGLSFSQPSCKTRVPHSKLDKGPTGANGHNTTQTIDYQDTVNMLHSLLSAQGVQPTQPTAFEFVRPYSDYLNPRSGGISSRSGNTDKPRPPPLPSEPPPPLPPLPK

[3] = target: CDK7 CyclinH (Homo sapiens, UniProt P50613); assay: Additional inhibition assay, CDK7 CyclinH; assay type: biochemical
Sequence of CDK7 CyclinH (P50613 whole entry): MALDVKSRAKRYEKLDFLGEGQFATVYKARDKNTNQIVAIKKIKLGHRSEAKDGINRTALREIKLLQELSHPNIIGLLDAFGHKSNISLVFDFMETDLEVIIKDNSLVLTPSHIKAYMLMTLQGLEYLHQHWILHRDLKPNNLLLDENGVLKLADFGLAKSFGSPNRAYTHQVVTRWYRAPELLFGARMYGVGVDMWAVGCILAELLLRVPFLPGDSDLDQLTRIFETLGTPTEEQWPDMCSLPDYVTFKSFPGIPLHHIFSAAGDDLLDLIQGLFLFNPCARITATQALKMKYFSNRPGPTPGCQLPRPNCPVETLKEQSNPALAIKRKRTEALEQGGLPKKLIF
Sequence of CDK7 CyclinH (P51946 whole entry partner): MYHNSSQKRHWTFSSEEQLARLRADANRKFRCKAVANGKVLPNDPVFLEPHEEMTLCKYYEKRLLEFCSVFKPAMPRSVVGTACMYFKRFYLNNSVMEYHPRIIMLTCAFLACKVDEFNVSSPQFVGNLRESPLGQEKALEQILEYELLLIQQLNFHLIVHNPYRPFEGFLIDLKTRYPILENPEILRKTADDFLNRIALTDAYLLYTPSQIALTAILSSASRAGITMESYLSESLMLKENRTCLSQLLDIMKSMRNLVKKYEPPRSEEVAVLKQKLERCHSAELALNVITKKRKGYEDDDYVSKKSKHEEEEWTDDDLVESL
Sequence of CDK7 CyclinH (P51948 whole entry partner): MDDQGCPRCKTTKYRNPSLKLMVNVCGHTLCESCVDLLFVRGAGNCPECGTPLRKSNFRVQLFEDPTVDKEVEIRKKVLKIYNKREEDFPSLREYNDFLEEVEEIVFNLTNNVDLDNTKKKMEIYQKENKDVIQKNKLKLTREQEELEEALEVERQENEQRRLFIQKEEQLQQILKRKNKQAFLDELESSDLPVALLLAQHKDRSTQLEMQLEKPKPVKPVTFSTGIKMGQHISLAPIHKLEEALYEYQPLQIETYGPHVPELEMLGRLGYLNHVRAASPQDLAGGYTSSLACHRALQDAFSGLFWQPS

[4] = target: T2, CDK2-CYCLINA (Homo sapiens, UniProt P24941); assay: Microfluidic LabChip kinase inhibition assay, CDK2-CyclinA; assay type: biochemical; conditions: 50 μM ATP
T2 construct: purchased Millipore

[5] = target: CDK4-CYCLIND1 (Homo sapiens, UniProt P11802); assay: Microfluidic LabChip kinase inhibition assay, CDK4-CyclinD1; conditions: CDK4 CyclinD1 IC50 (μM), 200 μM ATP, second value in parentheses on the next line
Sequence of CDK4-CYCLIND1 (P11802 whole entry): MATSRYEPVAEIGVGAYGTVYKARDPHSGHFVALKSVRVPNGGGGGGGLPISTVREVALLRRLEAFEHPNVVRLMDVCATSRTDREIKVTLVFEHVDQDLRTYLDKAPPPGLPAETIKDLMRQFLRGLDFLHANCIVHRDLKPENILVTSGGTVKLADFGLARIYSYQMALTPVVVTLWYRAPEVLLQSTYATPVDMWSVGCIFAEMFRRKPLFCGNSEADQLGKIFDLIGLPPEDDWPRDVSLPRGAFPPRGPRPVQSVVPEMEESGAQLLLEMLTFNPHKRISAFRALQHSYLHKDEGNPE
Sequence of CDK4-CYCLIND1 (P24385 whole entry partner): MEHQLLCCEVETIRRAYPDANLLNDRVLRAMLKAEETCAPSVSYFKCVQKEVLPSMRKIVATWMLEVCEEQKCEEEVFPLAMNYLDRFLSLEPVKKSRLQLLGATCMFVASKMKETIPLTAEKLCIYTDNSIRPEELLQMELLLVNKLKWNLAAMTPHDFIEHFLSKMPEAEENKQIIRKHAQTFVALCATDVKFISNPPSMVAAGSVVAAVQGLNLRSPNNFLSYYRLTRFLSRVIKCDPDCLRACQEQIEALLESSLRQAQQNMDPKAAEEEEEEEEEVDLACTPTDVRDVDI

Sequence of CDK1/B (P06493 whole entry): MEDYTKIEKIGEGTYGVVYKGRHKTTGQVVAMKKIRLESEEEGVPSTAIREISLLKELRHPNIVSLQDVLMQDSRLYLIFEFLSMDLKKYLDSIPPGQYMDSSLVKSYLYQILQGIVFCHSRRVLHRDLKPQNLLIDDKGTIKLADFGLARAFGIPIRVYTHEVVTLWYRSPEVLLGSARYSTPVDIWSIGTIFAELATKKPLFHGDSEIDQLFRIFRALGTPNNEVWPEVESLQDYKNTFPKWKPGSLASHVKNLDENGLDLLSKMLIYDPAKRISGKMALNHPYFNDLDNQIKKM
Sequence of CDK1/B (P14635 whole entry partner): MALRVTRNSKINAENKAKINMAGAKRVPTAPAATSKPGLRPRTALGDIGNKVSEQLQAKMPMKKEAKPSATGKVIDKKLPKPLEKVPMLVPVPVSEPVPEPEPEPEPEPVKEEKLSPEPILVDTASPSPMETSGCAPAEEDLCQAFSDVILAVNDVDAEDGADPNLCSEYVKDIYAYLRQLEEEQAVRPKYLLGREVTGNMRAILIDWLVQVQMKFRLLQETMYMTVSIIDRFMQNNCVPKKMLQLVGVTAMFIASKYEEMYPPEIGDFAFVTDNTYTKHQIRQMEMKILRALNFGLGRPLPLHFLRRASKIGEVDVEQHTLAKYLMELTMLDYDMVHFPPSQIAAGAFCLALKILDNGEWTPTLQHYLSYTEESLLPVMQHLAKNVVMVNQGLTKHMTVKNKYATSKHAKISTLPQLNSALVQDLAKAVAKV

SMILES | IC50 ([1]; Table 3a) | IC50 ([1]; Table 3b) | IC50 [2] | IC50 ([3]; Table 3a) | IC50 ([3]; Table 3b) | IC50 ([4]; Table 3a) | IC50 ([4]; Table 3b) | IC50 ([5]; Table 3a) | IC50 ([5]; Table 3b)
CN1CCN(c2ccc(Nc3ncc4c(n3)N(C3CCCC3)C3(CCNC3=O)C4)cn2)CC1 (stereo not drawn) [Compound C129, 7′-cyclopentyl-2′-((6-(4-methylpiperazin-1-yl)pyridin-3-yl)amino)-5′,7′-dihydrospiro[pyrrolidine-3,6′-pyrrolo[2,3-d]pyrimidin]-2-one] | 8.52 µM | 8.52 µM | 0.0628 µM | > 10 µM | > 10 µM | > 10 µM | > 10 µM | 0.103 µM | 0.103 µM
O=C1NCCC12Cc1cnc(Nc3ccc(N4CCC(N5CCOCC5)CC4)cc3)nc1N2C1CCCC1 (stereo not drawn) [Compound C131, 7′-cyclopentyl-2′-((4-(4-morpholinopiperidin-1-yl)phenyl)amino)-5′,7′-dihydrospiro[pyrrolidine-3,6′-pyrrolo[2,3-d]pyrimidin]-2-one] | > 10 µM | > 10 µM | 0.298 µM | > 10 µM | > 10 µM | > 10 µM | > 10 µM | 0.273 µM | 0.273 µM
O=C1NCCC12Cc1cnc(Nc3ccc(N4CCC(N5CCOCC5)CC4)c(F)c3)nc1N2C1CCCC1 (stereo not drawn) [Compound C132, 7′-cyclopentyl-2′-((3-fluoro-4-(4-morpholinopiperidin-1-yl)phenyl)amino)-5′,7′-dihydrospiro[pyrrolidine-3,6′-pyrrolo[2,3-d]pyrimidin]-2-one] | 6.93 µM | 6.93 µM | 0.0402 µM | > 10 µM | > 10 µM | 9.66 µM | 9.66 µM | 0.0561 µM | 0.0561 µM
O=C1NCCC12Cc1cnc(Nc3ccc(N4CCC(N5CCOCC5)CC4)nc3)nc1N2C1CCCC1 (stereo not drawn) [Compound C133, 7′-cyclopentyl-2′-((6-(4-morpholinopiperidin-1-yl)pyridin-3-yl)amino)-5′,7′-dihydrospiro[pyrrolidine-3,6′-pyrrolo[2,3-d]pyrimidin]-2-one] | > 10 µM | > 10 µM | 0.125 µM | > 10 µM | > 10 µM | > 10 µM | > 10 µM | 0.202 µM | 0.202 µM
CN1CC2(C1)CN(c1ccc(Nc3ncc4c(n3)N(C3CCCC3)C3(CC(=O)NC3=O)C4)cc1F)C2 (stereo not drawn) [Compound C149, 7′-cyclopentyl-2′-((3-fluoro-4-(6-methyl-2,6-diazaspiro[3.3]heptan-2-yl)phenyl)amino)-5′,7′-dihydrospiro[pyrrolidine-3,6′-pyrrolo[2,3-d]pyrimidine]-2,5-dione] | > 10 µM | > 10 µM | 0.0852 µM | > 10 µM | > 10 µM | > 10 µM | > 10 µM | 0.593 µM | 0.593 µM
CC(C)N1CC2(CN(c3ccc(Nc4ncc5c(n4)N(C4CCCC4)C4(CC(=O)NC4=O)C5)cc3)C2)C1 (stereo not drawn) [Compound C150, 7′-cyclopentyl-2′-((4-(6-isopropyl-2,6-diazaspiro[3.3]heptan-2-yl)phenyl)amino)-5′,7′-dihydrospiro[pyrrolidine-3,6′-pyrrolo[2,3-d]pyrimidine]-2,5-dione] | > 10 µM | > 10 µM | 0.27 µM | > 10 µM | > 10 µM | > 10 µM | > 10 µM | 0.522 µM | 0.522 µM
CN1CCC(c2ccc(Nc3ncc4c(n3)N(C3CCCC3)C3(CCNC3=O)C4)cc2)CC1 (stereo not drawn) [Compound C164, 7′-cyclopentyl-2′-((4-(1-methylpiperidin-4-yl)phenyl)amino)-5′,7′-dihydrospiro[pyrrolidine-3,6′-pyrrolo[2,3-d]pyrimidin]-2-one] | > 10 µM | > 10 µM | 0.117 µM | > 10 µM | > 10 µM | > 10 µM | > 10 µM | 0.167 µM | 0.167 µM
O=C1NCCC12Cc1cnc(Nc3ccc(OCCN4CCOCC4)cc3)nc1N2C1CCCC1 (stereo not drawn) [Compound C165, 7′-cyclopentyl-2′-((4-(2-morpholinoethoxy)phenyl)amino)-5′,7′-dihydrospiro[pyrrolidine-3,6′-pyrrolo[2,3-d]pyrimidin]-2-one] | > 10 µM | > 10 µM | 0.0914 µM | > 10 µM | > 10 µM | > 10 µM | > 10 µM | 0.702 µM | 0.702 µM
Cn1cc(-c2ccc(Nc3ncc4c(n3)N(C3CCCC3)C3(CCNC3=O)C4)cc2)cn1 (stereo not drawn) [Compound C168, 7′-cyclopentyl-2′-((4-(1-methyl-1H-pyrazol-4-yl)phenyl)amino)-5′,7′-dihydrospiro[pyrrolidine-3,6′-pyrrolo[2,3-d]pyrimidin]-2-one] | > 10 µM | > 10 µM | 0.0231 µM | > 10 µM | > 10 µM | > 10 µM | > 10 µM | 1.31 µM | 1.31 µM
O=C1NCCC12Cc1cnc(Nc3ccc(OCCN4CCCC4)nc3)nc1N2C1CCCC1 (stereo not drawn) [Compound C170, 7′-cyclopentyl-2′-((6-(2-(pyrrolidin-1-yl)ethoxy)pyridin-3-yl)amino)-5′,7′-dihydrospiro[pyrrolidine-3,6′-pyrrolo[2,3-d]pyrimidin]-2-one] | > 10 µM | > 10 µM | 0.0282 µM | > 10 µM | > 10 µM | > 10 µM | > 10 µM | 0.233 µM | 0.233 µM
CN(C)[C@H]1CCN(c2ccc(Nc3ncc4c(n3)N(C3CCCC3)C3(CCNC3=O)C4)cc2F)C1 (stereo partly drawn) [Compound C173, 7′-cyclopentyl-2′-((4-((S)-3-(dimethylamino)pyrrolidin-1-yl)-3-fluorophenyl)amino)-5′,7′-dihydrospiro[pyrrolidine-3,6′-pyrrolo[2,3-d]pyrimidin]-2-one] | 8.41 µM | 8.41 µM | 0.0336 µM | > 10 µM | > 10 µM | > 10 µM | > 10 µM | 0.109 µM | 0.109 µM
CN(C)[C@@H]1CCN(c2ccc(Nc3ncc4c(n3)N(C3CCCC3)C3(CCNC3=O)C4)cc2F)C1 (stereo partly drawn) [Compound C176, 7′-cyclopentyl-2′-((4-((R)-3-(dimethylamino)pyrrolidin-1-yl)-3-fluorophenyl)amino)-5′,7′-dihydrospiro[pyrrolidine-3,6′-pyrrolo[2,3-d]pyrimidin]-2-one] | 7.58 µM | 7.58 µM | 0.027 µM | > 10 µM | > 10 µM | > 10 µM | > 10 µM | 0.142 µM | 0.142 µM
CN(C)[C@H]1CCN(C(=O)c2ccc(Nc3ncc4c(n3)N(C3CCCC3)C3(CCNC3=O)C4)cc2)C1 (stereo partly drawn) [Compound C178, 7′-cyclopentyl-2′-((4-((S)-3-(dimethylamino)pyrrolidine-1-carbonyl)phenyl)amino)-5′,7′-dihydrospiro[pyrrolidine-3,6′-pyrrolo[2,3-d]pyrimidin]-2-one] | 1.05 µM | 1.05 µM | 0.00865 µM | > 10 µM | > 10 µM | 0.681 µM | 0.681 µM | 0.0453 µM | 0.0453 µM
CN(C)[C@@H]1CCN(C(=O)c2ccc(Nc3ncc4c(n3)N(C3CCCC3)C3(CCNC3=O)C4)cc2)C1 (stereo partly drawn) [Compound C181, 7′-cyclopentyl-2′-((4-((R)-3-(dimethylamino)pyrrolidine-1-carbonyl)phenyl)amino)-5′,7′-dihydrospiro[pyrrolidine-3,6′-pyrrolo[2,3-d]pyrimidin]-2-one] | 3.55 µM | 3.55 µM | 0.0602 µM | > 10 µM | > 10 µM | 1.94 µM | 1.94 µM | 0.0679 µM | 0.0679 µM
CC1CN(c2ccc(Nc3ncc4c(n3)N(C3CCCC3)C3(CCNC3=O)C4)cc2)CC(C)N1 (stereo not drawn) [Compound C207, 7′-cyclopentyl-2′-((4-(3,5-dimethylpiperazin-1-yl)phenyl)amino)-5′,7′-dihydrospiro[pyrrolidine-3,6′-pyrrolo[2,3-d]pyrimidin]-2-one] | > 10 µM | > 10 µM | 0.148 µM | > 10 µM | > 10 µM | 9.57 µM | 9.57 µM | 0.341 µM | 0.341 µM
CC1CN(c2ccc(Nc3ncc4c(n3)N(C3CCCC3)C3(CC(=O)NC3=O)C4)cc2)CC(C)N1 (stereo not drawn) [Compound C208, 7′-cyclopentyl-2′-((4-(3,5-dimethylpiperazin-1-yl)phenyl)amino)-5′,7′-dihydrospiro[pyrrolidine-3,6′-pyrrolo[2,3-d]pyrimidine]-2,5-dione] | 2.02 µM | 2.02 µM | 0.0799 µM | > 10 µM | > 10 µM | 2.28 µM | 2.28 µM | 0.0668 µM | 0.0668 µM
CC(C)c1ccc(Nc2ncc3c(n2)N(C2CCCC2)C2(CCNC2=O)C3)cc1 (stereo not drawn) [Compound C209, 7′-cyclopentyl-2′-((4-isopropylphenyl)amino)-5′,7′-dihydrospiro[pyrrolidine-3,6′-pyrrolo[2,3-d]pyrimidin]-2-one] | > 10 µM | > 10 µM | 0.153 µM | > 10 µM | > 10 µM | 5.01 µM | 5.01 µM | 1.38 µM | 1.38 µM
